Source: US4312867A, “Antibacterial compounds, processes for their preparation and compositions containing them” (Beecham Group Limited, priority 1979, dated 1982)
Values after ≈ are worked out from the molar mass of the structure shown. Where two headings read alike, the source gives them in different places.

Assays:
Format in all cases: cell-based
M pneumoniae 427a [1] = assay: in vitro anti-mycoplasmal MIC, Friis' broth (Table 3)
Method: (§1) The minimum inhibitory concentrations (MIC) of the examples were determined by either:
(§2) (i) in Friis' broth using microtitre plates, by modification of the metabolic-inhibition test (Taylor-Robinson, Post Frad, Med. J., 1967, 43, 100).

[2] = tested on: M suipneumoniae J2206/183b; assay: as above
Method: as §1, §2

M pulmonis JB [3] = assay: as above
Method: as §1, §2

M dispar NCTC 10125 = assay: as above
Method: as §1, §2

M dispar H225 = assay: as above
Method: as §1, §2

M fermentans MWKL4 [4] = assay: as above
Method: as §1, §2

M pneumoniae ATCC 15492 [5] = assay: as above
Method: as §1, §2

M suipneumoniae Str 11 = assay: as above
Method: as §1, §2

M synoviae ATCC 25204 = assay: in vitro anti-mycoplasmal MIC, Friis' agar (Table 3)
Method: as §1
(§3) or (ii) by serial dilution in Friis' agar medium.

M hyorhinis ATCC 23234 = assay: as above
Method: as §1, §3

M gallisepticum S6 = assay: as above
Method: as §1, §3

M alkalescens NCTC 10135 = assay: as above
Method: as §1, §3

M hyosynoviae ATCC 25591 = assay: as above
Method: as §1, §3

M arthritidis ATCC 14124 = assay: as above
Method: as §1, §3

M pneumoniae 427a [6] = assay: as above
Method: as §1, §3

[7] = tested on: M bovigenitalium ATCC 14173; assay: as above
Method: as §1, §3

M pulmonis JB [8] = assay: as above
Method: as §1, §3

M fermentans MWKL4 [9] = assay: as above
Method: as §1, §3

M pneumoniae ATCC 15492 [10] = assay: as above
Method: as §1, §3

M. suipneumoniae MS16 = assay: anti-mycoplasmal MIC, Friis broth solidified with agarose (Table 4); conditions: Mesomycoplasma hyopneumoniae
M. hyorhinis ATCC 23234 = assay: as above; conditions: Mesomycoplasma hyorhinis, ATCC23234, 144 h, 6 days at 37° C.
M. suipneumoniae HK(2) = assay: as above; conditions: Mesomycoplasma hyopneumoniae, 144 h, 6 days at 37° C.
M. suipneumoniae JF435 = assay: as above; conditions: Mesomycoplasma hyopneumoniae
M. suipneumoniae UCD1 = assay: as above; conditions: Mesomycoplasma hyopneumoniae, 144 h, 6 days at 37° C.
M. suipneumoniae Str. 11 = assay: as above; conditions: Mesomycoplasma hyopneumoniae
B. subtilis ATCC 6633 = assay: MIC veterinary bacteria (Table 2), serial dilution in agar; conditions: diagnostic sensitivity test agar
M. suipneumoniae NB12 = assay: anti-mycoplasmal MIC, Friis broth solidified with agarose (Table 4); conditions: Mesomycoplasma hyopneumoniae
M. suipneumoniae LABER = assay: as above; conditions: Mesomycoplasma hyopneumoniae, 144 h, 6 days at 37° C.
[11] = tested on: M. suipneumoniae NCTC 10110; assay: as above; conditions: Mesomycoplasma hyopneumoniae, NCTC10110, 144 h
M. hyorhinis ATCC 25021 = assay: as above; conditions: Mesomycoplasma hyorhinis, ATCC25021, 144 h, 6 days at 37° C.
[12] = tested on: M. bovigenitalium ATCC 14173; assay: as above; conditions: 144 h
[13] = tested on: M. suipneumoniae ATCC 25095; assay: as above; conditions: Mesomycoplasma hyopneumoniae, ATCC25095, 144 h, 6 days at 37° C.
[14] = tested on: M. hyosynoviae ATCC 25591; assay: as above; conditions: 144 h
[15] = tested on: 12 strains of M. suipneumoniae; assay: anti-mycoplasmal MIC, Friis broth solidified with agarose (Table 4), mean over strains; conditions: Mesomycoplasma hyopneumoniae, 144 h; mean of 12 strains; 6 days at 37° C.; read-out: Mean MIC for above 12 strains of M. suipneumoniae
M. gallisepticum S6 = assay: anti-mycoplasmal MIC, Friis broth solidified with agarose (Table 4); conditions: Mycoplasmoides gallisepticum
M. suipneumoniae TAM 6N = assay: as above; conditions: Mesomycoplasma hyopneumoniae, TAM6N, 144 h, 6 days at 37° C.

Compound	MIC (M pneumoniae 427a [1]) [mg/L]	MIC [2] [mg/L]	MIC (M pulmonis JB [3]) [mg/L]	MIC (M dispar NCTC 10125) [mg/L]	MIC (M dispar H225) [mg/L]	MIC (M fermentans MWKL4 [4]) [mg/L]	MIC (M pneumoniae ATCC 15492 [5]) [mg/L]	MIC (M suipneumoniae Str 11) [mg/L]	MIC (M synoviae ATCC 25204) [mg/L]	MIC (M hyorhinis ATCC 23234) [mg/L]	MIC (M gallisepticum S6) [mg/L]	MIC (M alkalescens NCTC 10135) [mg/L]	MIC (M hyosynoviae ATCC 25591) [mg/L]	MIC (M arthritidis ATCC 14124) [mg/L]	MIC (M pneumoniae 427a [6]) [mg/L]	MIC [7] [mg/L]	MIC (M pulmonis JB [8]) [mg/L]	MIC (M fermentans MWKL4 [9]) [mg/L]	MIC (M pneumoniae ATCC 15492 [10]) [mg/L]	MIC (M. hyorhinis ATCC 23234) [mg/L]	other results
C/C(=C\C(=O)OCCCCCCCCS(N)(=O)=O)CC1OCC(CC2OC2C(C)C(C)O)C(O)C1O (stereo not drawn) [Example 3, 8-Sulphamoyloctyl monate A]	0.312 (≈ 0.582 µM)	0.156 (≈ 0.291 µM)	0.02 (≈ 0.0373 µM)	0.02 (≈ 0.0373 µM)	0.02 (≈ 0.0373 µM)	0.02 (≈ 0.0373 µM)	0.312 (≈ 0.582 µM)	0.02 (≈ 0.0373 µM)	< 0.02	0.312 (≈ 0.582 µM)	2.5 (≈ 4.67 µM)	< 0.02	0.078 (≈ 0.146 µM)	5 (≈ 9.33 µM)	0.312 (≈ 0.582 µM)	< 0.039	0.039 (≈ 0.0728 µM)	0.039 (≈ 0.0728 µM)	0.625 (≈ 1.17 µM)	–	–
C/C(=C\C(=O)OCCCCCCS(N)(=O)=O)CC1OCC(CC2OC2C(C)C(C)O)C(O)C1O (stereo not drawn) [Example 2, 6-Sulphamoylhexyl monate A]	0.312 (≈ 0.615 µM)	0.156 (≈ 0.307 µM)	< 0.02	< 0.02	< 0.02	< 0.02	0.312 (≈ 0.615 µM)	≤ 0.02	< 0.02	0.156 (≈ 0.307 µM)	2.5 (≈ 4.92 µM)	< 0.02	0.039 (≈ 0.0768 µM)	5 (≈ 9.85 µM)	0.312 (≈ 0.615 µM)	≤ 0.02	≤ 0.02	0.039 (≈ 0.0768 µM)	0.625 (≈ 1.23 µM)	–	–
C/C(=C\C(=O)OC(C)CCCCCS(N)(=O)=O)CC1OCC(CC2OC2C(C)C(C)O)C(O)C1O (stereo not drawn) [Example 5, 7-Sulphamoylhept-2-yl monate A]	–	–	–	–	–	–	–	–	–	–	–	–	–	–	–	–	–	–	–	250 (≈ 479 µM)	MIC (M. suipneumoniae MS16; MS16, 144 h): 250 mg/L (≈ 479 µM); MIC (M. suipneumoniae HK(2)): 1000 mg/L (≈ 1920 µM); MIC (M. suipneumoniae JF435; 144 h, M. suipneumoniae JF435, 6 days at 37° C., read-out: MIC): 500 mg/L (≈ 958 µM); MIC (M. suipneumoniae UCD1): 1000 mg/L (≈ 1920 µM); MIC (M. suipneumoniae Str. 11; STR.11, 144 h): 250 mg/L (≈ 479 µM); MIC (B. subtilis ATCC 6633): No Growth; MIC (M. suipneumoniae NB12; 144 h, M. suipneumoniae NB12, 6 days at 37° C., read-out: MIC): 500 mg/L (≈ 958 µM); MIC (M. suipneumoniae LABER): 250 mg/L (≈ 479 µM); MIC ([11]; M. suipneumoniae NCTC 10110, 6 days at 37° C., read-out: MIC): 500 mg/L (≈ 958 µM); MIC (M. hyorhinis ATCC 25021): 250 mg/L (≈ 479 µM); MIC ([12]; M. bovigenitalium ATCC 14173, 6 days at 37° C., read-out: MIC): 50 mg/L (≈ 95.8 µM); MIC [13]: 250 mg/L (≈ 479 µM); MIC [14]: 100 mg/L (≈ 192 µM); MIC [15]: 480 mg/L (≈ 920 µM); MIC (M. gallisepticum S6; S6, 144 h): 2500 mg/L (≈ 4790 µM); MIC (M. suipneumoniae TAM 6N): 500 mg/L (≈ 958 µM)
C/C(=C\C(=O)OCCCS(=O)(=O)N(C)C)CC1OCC(CC2OC2C(C)C(C)O)C(O)C1O (stereo not drawn) [Example 4, 3-N,N-Dimethylsulphamoylpropyl monate A]	–	–	–	–	–	–	–	–	–	–	–	–	–	–	–	–	–	–	–	250 (≈ 506 µM)	MIC (M. suipneumoniae MS16; 144 h, M. suipneumoniae MS16, 6 days at 37° C., read-out: MIC): 500 mg/L (≈ 1010 µM); MIC (M. suipneumoniae HK(2)): 1000 mg/L (≈ 2030 µM); MIC (M. suipneumoniae JF435; JF435, 144 h): 1000 mg/L (≈ 2030 µM); MIC (M. suipneumoniae UCD1): 1000 mg/L (≈ 2030 µM); MIC (M. suipneumoniae Str. 11; 144 h, M. suipneumoniae Str. 11, 6 days at 37° C., read-out: MIC): 500 mg/L (≈ 1010 µM); MIC (B. subtilis ATCC 6633): No Growth; MIC (M. suipneumoniae NB12; NB12, 144 h): 500 mg/L (≈ 1010 µM); MIC (M. suipneumoniae LABER): 500 mg/L (≈ 1010 µM); MIC [11]: 1000 mg/L (≈ 2030 µM); MIC (M. hyorhinis ATCC 25021): 250 mg/L (≈ 506 µM); MIC [12]: 50 mg/L (≈ 101 µM); MIC [13]: 500 mg/L (≈ 1010 µM); MIC ([14]; M. hyosynoviae ATCC 25591, 6 days at 37° C., read-out: MIC): 250 mg/L (≈ 506 µM); MIC [15]: 750 mg/L (≈ 1520 µM); MIC (M. gallisepticum S6; 144 h, M. gallisepticum S6, 6 days at 37° C., read-out: MIC): > 10000 mg/L; MIC (M. suipneumoniae TAM 6N): 1000 mg/L (≈ 2030 µM)
